Consider two compounds from patent US12728156B2, “Tumor cell-derived exosomes and method of treating colorectal cancer” (REGENTS OF THE UNIVERSITY OF MINNESOTA, priority 2020, dated 2026).

A short description of series [1]: 5-FU toxicity evaluation (body weight, diarrhea score). Format: in vivo, mice. The settings on record: monotherapy. The procedure: FIGS. 24A-24D show the side effects of different treatments. Related to FIG. 16. FIGS. 24A-24B show mouse body weight, which was measured on day 12, 24, and 32 during treatment. […] FIGS. 24C-24D show the results of a diarrhea assessment, which was performed at the endpoint of mice follow-up to evaluate the side effects on mouse intestine.
Toxicity is a primary concern for cancer treatments, especially in combination therapy. We took this into account by evaluating the side effects of each treatment.
We recorded animal body weight and diarrhea scores after treatments. Mice were weighed on day 12, 24, and 32 after treatment. The diarrhea score was assessed at the endpoint of each treatment by using a 4-point scoring system: 0=normal stool; 1=slight diarrhea (soft formed stool without perianal staining of the coat); 2=moderate diarrhea (unformed stool with moderate perianal staining of the coat); and 3=severe diarrhea (watery stool with severe perianal staining of the coat) (Song et al., 2013).

A further series deals with T cells. The series is described as follows: T cell depletion in naïve mice. Format: in vivo. As for the experimental part:
FIGS. 23A-23D show the T cell depleting effects of 5-FU and anti-CD3 treatment. Related to FIGS. 14 and 16-18.
We tested the effects of 5-FU treatment and 5-FU and anti-4-1BB combination treatment on T cell depletion in vivo. Intraperitoneal administration of anti-CD3 treatment (clone: 17A2, BioXcell, 5 mg/kg every 3 days) was given to induce T cell depletion in mice. One dose of 5-FU (150 mg/kg) or 5-FU (150 mg/kg) and anti-4-1BB (5 mg/kg) combination treatment was given intraperitoneally in naïve mice. Mice were sampled on days 2, 4, 7, and 9 after treatment for quantifying T cells in lymph nodes, spleen, bone marrow, and blood circulation.

Another series concerns CT26 tumors. In words: Mass cytometry immune profiling of treated CT26 tumors. Format: in vivo, mice. The source says:
FIGS. 18A-18I show the tumor immunological response to 5-FU and anti-4-1BB treatments in CT26 tumors. […] PD-L1, Ki-67, CD80, and CD86 expression were quantified in whole tumor tissue. […] See also FIGS. 25-27.
FIGS. 27A-27H show the tumor immunological response to 5-FU and anti-PD-1 treatments in CT26 tumors. Related to FIG. 18.
Tumor samples were collected and digested using standard flow cytometry procedure. A total of 3 million single cells were used for each mass cytometry staining. In brief, the single cell pellets were first incubated with Cell-ID Cisplatin with a final concentration of 5 μM for 5 min at RT to identify dead cells. Cells were then washed and blocked by Fc-receptor blocking solution. Cell membrane staining was then performed with metal-conjugated antibodies for 30 min at RT. After staining, cells were fixed and permeabilized. The intracellular staining antibodies were then added and incubated for 45 min at RT. Finally, cells were labeled with 1 ml 1,000× diluted 125 μM Cell-ID intercalator-Ir to stain all cells in MaxPar Fix and Perm Buffer overnight at 4° C. EQ Four Element Calibration Beads with the reference EQ passport P13H2302 were added to each staining tube right before data acquisition by a CyTOF 2 mass cytometer. The mass cytometry data were then normalized and exported for gating on alive single cells, which were then imported to the Cytobank software. A t-SNE analysis was performed with default parameters (perplexity, 30; iterations, 1,000) on all cell types in tumor samples.

A further series relates to CT26 and MC38 tumors. In words: Established tumor model, 5-FU and anti-4-1BB schedules. The settings on record: monotherapy.
The test system of series [2] is miR-424 levels in T-cells and DCs. The series is described as follows: CT26 tumor cells co-cultured with naïve T-cells and DCs, miR-424 level. Format: cell-based, mouse. The settings on record: co-culture with CT26 tumor cells; EV production blocked. The procedure: miR-424 levels were analyzed across different samples, including tumor cells, immune cells, and EVs (FIG. 3A). To determine whether EVs can be up-taken by T-cells and DCs, CT26-WT cell line-derived EVs were stained with Dio dye and incubated with mouse naïve T-cells and DCs. Images taken using confocal microscopy confirmed the presence of Dio labeled EVs inside the T-cells and DCs (FIG. 3B). Next, CT26 tumor cells were co-cultured with naïve T-cells and DCs, which lead to a significant increase in miR-424 levels in both T-cells and DCs (FIG. 3C). Importantly, this increase in miR-424 could be neutralized by blocking the production of EVs in the co-culture system using GW4869 (FIG. 3C). To determine whether this tumor-derived EVs were being engulfed by the immune cells, CD63-GFP transfected CT26 tumor cells were injected into mice to establish a subcutaneous tumor model. […] Next, we sought to determine whether these effects could be eliminated by knocking out miR-424 in tumors. To this end, T-cells and DCs were isolated from the spleens of healthy mice, and of mice with wild-type tumors or miR-424 knockout (KO) tumors using flow cytometry sorting. miR-424 level was measured in the sorted T-cells and DCs by qPCR. […] Next, to study the impact of EV miR-424 expression on T-cell co-stimulation, the Jurkat cell and Raji cell conjugation assays were used. […]

The test system of a further series is IL-2 production. In words: Jurkat-Raji conjugation system co-cultured with human CRC derived organoids. Format: cell-based. The following applies: EVs secretion blocked in the co-culture system. The procedure: miR-424 levels were analyzed across different samples, including tumor cells, immune cells, and EVs (FIG. 3A). To determine whether EVs can be up-taken by T-cells and DCs, CT26-WT cell line-derived EVs were stained with Dio dye and incubated with mouse naïve T-cells and DCs. Images taken using confocal microscopy confirmed the presence of Dio labeled EVs inside the T-cells and DCs (FIG. 3B). Next, CT26 tumor cells were co-cultured with naïve T-cells and DCs, which lead to a significant increase in miR-424 levels in both T-cells and DCs (FIG. 3C). Importantly, this increase in miR-424 could be neutralized by blocking the production of EVs in the co-culture system using GW4869 (FIG. 3C). To determine whether this tumor-derived EVs were being engulfed by the immune cells, CD63-GFP transfected CT26 tumor cells were injected into mice to establish a subcutaneous tumor model. […] To this end, T-cells and DCs were isolated from the spleens of healthy mice, and of mice with wild-type tumors or miR-424 knockout (KO) tumors using flow cytometry sorting. miR-424 level was measured in the sorted T-cells and DCs by qPCR. […]
The Jurkat-Raji cells conjugation system was used for understanding the impacts of human tumor organoid-derived EVs on co-stimulation as well. […] Concentration of IL-2 was quantified in the co-culture system.

As to `O=c1[nH]cc(F)c(=O)[nH]1` [5-FU, 5-fluorouracil], in series [1], the side effects entry was “severe body weight loss and diarrhea”. Moreover, the T cell depletion entry in the series on T cells is “depleted T cells in lymphatic organs, blood circulation, and bone marrow”. Further, in the series with T cells (after 5-FU treatment), the “time to recovery of the T cell population” value is listed as “around 9 days”. Besides, the “frequency of MDSCs” value in the series on CT26 tumors (5-FU monotherapy and combination treatment) was “decreased”. For the same compound, in the series on CT26 tumors (5-FU treatment), the “CD80 expression and MDSCs in tumor tissue” value is “upregulated CD80 expression and depleted MDSCs”; the “T-cell population in the tumor microenvironment” value is “suppressed the T-cell population”. Further, in the series with CT26 and MC38 tumors, the “tumor growth and survival time” value is “delayed tumor development”.
As for `O=C(/C=C/c1ccc(/C=C/C(=O)Nc2ccc(C3=NCCN3)cc2)cc1)Nc1ccc(C2=NCCN2)cc1` [GW4869], the “increase in miR-424 levels in T-cells and DCs” value in series [2] is “neutralized”. For the same compound, the “suppression of IL-2 production by organoids” value in the series on IL-2 production is listed as “neutralized”.
